# Test results from PMC11846289, “New tetrahydroisoquinolines bearing nitrophenyl group targeting HSP90 and RET enzymes: synthesis, characterization and biological evaluation” (BMC Chemistry, 2025).
# “Also recorded” adds a separate entry of the source.
# Key:
# [1] = system: HEPG2 (human liver carcinoma); test: one spot 100 µg/ml cytotoxicity, HEPG2; type: cell-based; settings: Homo sapiens, HepG2, percent inhibition, read-out: one spot concentration inhibition, HEPG2
# HEPG2 cells [2] = test: Cell cycle analysis by DNA flow cytometry; type: cell-based, human
# Source text: After adding compound 3, we explore the growth inhibitory cell cycle mechanism of HEPG2 cell lines using DNA flow cytometry to examine the control and advancement of the cell cycle in HEPG2 cancer cells. […] When compound 3 was applied to HEPG2 cells, the cells cycled between the G0-G1 and G2/M phases (Fig. 4, Table 3). […] Compound 3 can also stop HEPG2 cells at the G0–G1% stage of the cell cycle, with an increase in the G0–G1phase fraction from 34.54 to 40.10.
# The cell cycle arrests of compound 3 against HEPG2 was carried out according to Abcam method (code ab139418), (www.abcam.co.jp).
# [3] = system: normal human skin cell line (HSF); test: one spot 100 µg/ml cytotoxicity, normal skin cell line HSF; type: cell-based; settings: Homo sapiens
# HEPG2 cell line = test: MTT in vitro cytotoxicity, HEPG2; type: cell-based, human
# Method: (§1) Using the MTT test method, the in vitro cytotoxicity of our synthesized compounds at different doses ranging from […] was examined in two cell lines, HEPG2 and MCF7, to examine 50% of the cancer cells dying.
# (§2) Some of the synthesized compounds were tested as anticancer activity for the IC50 against two cell lines HEPG2 and MCF7 cells according to method. All cell lines were obtained from national cancer institute, Cairo—Egypt.
# MCF7 cell line = test: MTT in vitro cytotoxicity, MCF7; type: cell-based, human
# Method: as §1, §2
# [4] = system: MG-63 (human osteosarcoma); test: one spot 100 µg/ml cytotoxicity, MG-63; type: cell-based; settings: Homo sapiens, MG-63, percent inhibition, read-out: one spot concentration inhibition, MG-63
# [5] = system: CACO2 (colon carcinoma human); test: one spot 100 µg/ml cytotoxicity, CACO2; type: cell-based; settings: Homo sapiens, Caco-2, percent inhibition, read-out: one spot concentration inhibition, CACO2
# HSF = test: IC50 against normal cell line HSF; type: cell-based, human; settings: Homo sapiens; normal skin cell line HSF; read-out: IC50 FOR HSF ± S.D.
# [6] = system: HUH7 (human liver carcinoma); test: one spot 100 µg/ml cytotoxicity, HUH7; type: cell-based; settings: Homo sapiens, Huh-7, percent inhibition, read-out: one spot concentration inhibition, HUH7
# HEPG2 cells [7] = test: Annexin V-FITC/PI apoptosis assay; type: cell-based, human
# Method: Showing a marked rise in overall apoptosis relative to the untreated control. […] HEPG2 cell death increases by 59 times following treatment with compounds 3. Therefore compound 3 has a biological mechanism that inhibits the proliferation of HEPG2 cells and has cytotoxic effects against cancer.
# The Annexin-V FITC apoptosis assay of compounds 3 against HEPG2 was performed according to (BioVision Research Products (code k101-25). (www.biovision.com).
# [8] = system: MCF7 (human breast carcinoma); test: one spot 100 µg/ml cytotoxicity, MCF7; type: cell-based; settings: Homo sapiens, MCF7, percent inhibition, read-out: one spot concentration inhibition, MCF7
# [9] = system: HCT116 (colon carcinoma human); test: one spot 100 µg/ml cytotoxicity, HCT116; type: cell-based; settings: Homo sapiens, HCT-116, percent inhibition, read-out: one spot concentration inhibition, HCT116
# [10] = system: H460 (human lung carcinoma); test: one spot 100 µg/ml cytotoxicity, H460; type: cell-based; settings: Homo sapiens, NCI-H460, percent inhibition, read-out: one spot concentration inhibition, H460
# [11] = system: A549 (human lung carcinoma); test: one spot 100 µg/ml cytotoxicity, A549; type: cell-based; settings: Homo sapiens, A549, percent inhibition, read-out: one spot concentration inhibition, A549
compound,measurement,setting,value
"CSc1nc(C)c2c(c1C#N)CC(C)(O)C(C(C)=O)C2c1cccc([N+](=O)[O-])c1 (stereo not drawn) [Compound 3, 7-Acetyl-4-cyano-1,6-dimethyl-6-hydroxy-3-methylthio-8-(3-nitrophenyl)−5,6,7,8-tetrahydroisoquinoline]",inhibition at 100 µg/mL,[1],67.7%
same,cell cycle arrest phase,HEPG2 cells [2]; HEPG2,"G2/M phase; also recorded: G0-G1, G2/M phases"
same,%G2/M,"HEPG2 cells [2]; HEPG2, 48 h at IC50 75 µg/ml, control 12.12",25.67%
same,%S,"HEPG2 cells [2]; HEPG2, 48 h at IC50 75 µg/ml, control 23.51",22.10%
same,%G0–G1,"HEPG2 cells [2]; HEPG2, 48 h at IC50 75 µg/ml, control 34.54",40.1%
same,cytotoxicity at 100 µg/mL,"[3]; HSF, one spot 100 µg/ml, read-out: Inhibition percent of HSF cell line",52%
same,inhibition at 100 µg/mL,"[3]; 100 µg/ml, supplement Table S1, read-out: one spot concentration inhibition, HSF",50.6%
same,Selectivity Index = IC50 of HSF/IC50 of HEPG2,HEPG2 cell line; HSF vs HEPG2,1.2
same,IC50,"HEPG2 cell line; Homo sapiens, MTT, HEPG2, read-out: IC50 for HEPG2 ± S.D",75 ± 0.063 µg/mL
same,Selectivity Index = IC50 of HSF/ IC50 of MCF7,MCF7 cell line; HSF vs MCF7,2.9
same,IC50,"MCF7 cell line; Homo sapiens, MTT, MCF7, read-out: IC50 for MCF7 ± S.D",33 ± 0.034 µg/mL
same,inhibition at 100 µg/mL,[4],44.3%
same,inhibition at 100 µg/mL,[5],59.2%
same,IC50,HSF,96 µg/mL
same,inhibition at 100 µg/mL,[6],32.9%
same,Apoptosis Early,"HEPG2 cells [7]; HEPG2, control 0.2",13.45%
same,Apoptosis Late,"HEPG2 cells [7]; HEPG2, control 0.31",16.78%
same,Necrosis,"HEPG2 cells [7]; HEPG2, control 1.36",2.96%
same,Apoptosis Total,"HEPG2 cells [7]; HEPG2, control 1.87",33.19%
same,fold increase in HEPG2 cell line apoptosis,HEPG2 cells [7]; relative to untreated control,59 fold
same,inhibition at 100 µg/mL,[8],71.5%
same,inhibition at 100 µg/mL,[9],67.1%
same,inhibition at 100 µg/mL,[10],62%
same,inhibition at 100 µg/mL,[11],50.6%
